The results in this text go back to patent EP0830600B1, “FUNCTIONAL BIOASSAY FOR G-PROTEIN COUPLED RECEPTOR AGONISTS AND ANTAGONISTS” (Praecis Pharmaceuticals Incorporated, priority 1995, dated 1996).

Experiment [1] deals with T1, human β2-adrenergic receptor (Homo sapiens, UniProt P07550).
T1 construct: expressed in transfected cells
Nature of the experiment: Cell morphology (photomicroscopy) of β2-adrenergic receptor-expressing cell line. The experiment is classed as cell-based. The following applies: several days. How it is done:
Several days later, cells were analyzed by photomicroscopy to determine the effect of treatment on cell morphology. […] Assessment of the agonist or antagonist properties of individual compounds or libraries of compounds can be achieved by, for example, microscopic observation of the cells, or alternatively, by video digitizing techniques to quantify cell shape changes and/or cell alignment changes.

For experiment [2], the system named is untransfected CHO DUKX B 1 cells. Kind of experiment: MTT cell viability, control untransfected CHO cells. The experiment is classed as cell-based, Chinese Hamster. The following applies: carbachol or pirenzepine; 5 days; Figure 2A.
The subject of a further experiment is untransfected CHO cells. Kind of experiment: Cell morphology, control untransfected CHO cells. The experiment is classed as cell-based, Chinese Hamster. Particulars: cells not expressing the recombinant β2-adrenergic receptor. How it is done: . Several days later, cells were analyzed by photomicroscopy to determine the effect of treatment on cell morphology. […]. Salbutamol induced both a change in cell shape (i.e., elongation of the cells) and an alignment of the cells with each other. […]. Assessment of the agonist or antagonist properties of individual compounds or libraries of compounds can be achieved by, for example, microscopic observation of the cells, or alternatively, by video digitizing techniques to quantify cell shape changes and/or cell alignment changes. […]

T1 sequence (P07550 whole entry): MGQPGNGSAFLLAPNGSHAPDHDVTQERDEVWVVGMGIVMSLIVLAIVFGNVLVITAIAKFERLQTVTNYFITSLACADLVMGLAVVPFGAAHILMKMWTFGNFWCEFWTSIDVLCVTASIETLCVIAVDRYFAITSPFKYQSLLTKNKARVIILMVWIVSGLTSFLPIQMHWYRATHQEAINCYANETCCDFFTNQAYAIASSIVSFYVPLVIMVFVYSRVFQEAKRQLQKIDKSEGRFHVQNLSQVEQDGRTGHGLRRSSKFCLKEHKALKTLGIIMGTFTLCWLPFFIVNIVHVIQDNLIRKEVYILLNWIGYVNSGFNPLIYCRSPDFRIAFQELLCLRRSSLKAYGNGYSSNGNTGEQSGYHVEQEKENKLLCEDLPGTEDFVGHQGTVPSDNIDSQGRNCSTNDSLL

With `COc1ccc(OC)c(C(O)C(C)NC(C)(C)C)c1` (centres unmarked) [butoxamine], the “cell morphology, antagonism of salbutamol effect” value in experiment [1] (10 nM butoxamine together with salbutamol) is reported as “indistinguishable from control cells”. Also, in experiment [1] (compound alone (salbutamol 1 nM), photomicroscopy, Figure 4), the “effect of treatment on cell morphology (cell shape and alignment)” value is “no detectable change in cell shape or alignment”.

On to `C[N+](C)(C)CCOC(N)=O` [carbachol], for which the “viability of untransfected CHO cells (MTT)” value in experiment [2] was “little effect”. Take `CN1CCN(CC(=O)N2c3ccccc3C(=O)Nc3cccnc32)CC1` [pirenzepine]: in experiment [2], the “viability of untransfected CHO cells (MTT)” value was “little effect”. Turning to `CC(C)(C)NCC(O)c1ccc(O)c(CO)c1` (centres unmarked) [salbutamol], in the experiment with untransfected CHO cells, the “change in cell shape or alignment on untransfected CHO cells” value was “no detectable change in cell shape or alignment”.
